Here are results for one compound from PMC9146377, “Design and Synthesis of Novel Bis-Imidazolyl Phenyl Butadiyne Derivatives as HCV NS5A Inhibitors” (Pharmaceuticals, 2022).

Series [1] relates to HCV genotype 1a (strain H77S.3) full-length reporter viral RNA. The experiment in a line: microbe, parasite or virus in culture. Format: cell-based, Hepatitis C virus.
Series [2] deals with subgenomic replicon of HCV GT 2a (strain JFH1). The experiment in a line: Anti-HCV luciferase assay, genotype 2a replicon in Huh7-JFH1 cells. Conditions: for EC50: Huh7-JFH1 cells. Format: cell-based, Hepatitis C virus. On the procedure: Specifically, we determined the activity of 10a against viral replication by measuring luciferase activity in Huh7-JFH1, Huh7.5-3a, and Huh7.5-4a stable cell lines containing subgenomic replicons of HCV GT 2a (strain JFH1), GT 3a (strain S52) and GT 4a (strain ED43), respectively. In addition, the activity of 10a was determined in Huh7-Lunet cells electroporated with the in vitro transcribed full-length reporter viral RNA of HCV genotype 1a (strain H77S.3).
Huh5-2 [65] and Huh7-JFH1 [66] stable cell lines harbor the subgenomic HCV reporter replicon I389luc-ubi-neo/NS3-3′/Con1/5.1 (genotype 1b; strain Con1) and I389luc-ubi-neo/NS3-3′_dg_JFH1 (genotype 2a, JFH1 strain), respectively (kindly provided by R. Bartenschlager, Heidelberg University, Heidelberg, Germany). Huh7.5-3a and Huh7.5-4a stable cell lines harbor the subgenomic HCV reporter replicon S52-SG (Feo) (AII) (genotype 3a; S52 strain) and ED43-SG (Feo) (VYG) (genotype 4a; ED43 strain), respectively (viral constructs kindly provided by C.M. Rice, Rockefeller University, New York, NY, USA). […]
(§1) The anti-HCV assay in replicon cells was performed by seeding 1 × 10^4 cells per well in a 96-well plate. […] Cells were lysed after 72 h, and F-Luc activity was measured. […] At 72 h post-treatment, cell supernatants were collected, and G-Luc activity was measured. In addition, the cells were lysed for total protein quantification.
(§2) Relative luminescence units (RLU) were expressed as a percentage of the respective units derived from DMSO-treated cells (control). […]
(§3) The F-Luc activity was measured using the Luciferase Assay System (Promega, Madison, WI, USA), as recommended by the manufacturer. The G-Luc activity was measured using 12 μM coelenterazine (Promega) in assay buffer (50 mM potassium phosphate, pH 7.4, 500 mM NaCl, 1 mM EDTA). […] The F-Luc activity was normalized to the total protein amount determined using the Bradford assay reagent (Pierce, Waltham, MA, USA).
Background: A replicon is a self-replicating genome or part of one, used to study replication in cells.

Series [3] has as its system subgenomic replicon of HCV GT 3a (strain S52). As to the kind of experiment: Anti-HCV luciferase assay, genotype 3a replicon in Huh7.5-3a cells. Format: cell-based. To be noted: Hepatitis C virus, GT3A, read-out: Gt3a EC50. On the procedure: (§4) Specifically, we determined the activity of 10a against viral replication by measuring luciferase activity in Huh7-JFH1, Huh7.5-3a, and Huh7.5-4a stable cell lines containing subgenomic replicons of HCV GT 2a (strain JFH1), GT 3a (strain S52) and GT 4a (strain ED43), respectively. In addition, the activity of 10a was determined in Huh7-Lunet cells electroporated with the in vitro transcribed full-length reporter viral RNA of HCV genotype 1a (strain H77S.3). […]
as §1, §2, §3

In series [4] the test system is subgenomic replicon of HCV GT 4a (strain ED43). The experiment in a line: Anti-HCV luciferase assay, genotype 4a replicon in Huh7.5-4a cells. The class given is cell-based, Hepatitis C virus. On the procedure:
as §4, §1, §2, §3

Series [5] is described as follows: Cytotoxicity assay (intracellular ATP levels), Table 4 Gt1a. Format: cell-based. Conditions: human, Huh7-Lunet cells, HCV 1a (H77) full length. On the procedure:
Intracellular ATP levels were measured to determine the cytotoxicity of the compounds in the treated cells. In 96-well plates, 10^4 cells per well were seeded, incubated with serial dilutions of the compounds or DMSO as a control for 72 h at 37 °C (5% CO2) and lysed for ATP measurement. ATP levels were measured using the ViaLight HS BioAssay kit (Lonza, Basel, Switzerland) in a GloMax 20/20 single-tube luminometer (Promega) for 1 s, according to the manufacturer’s protocol. Values were normalized to total protein amounts and used to determine the compound concentration causing 50% cell death (CC50). Nonlinear regression analysis was performed using Prism 5.0 software (GraphPad Software Inc., San Diego, CA, USA).

Series [6] deals with NS5A protein expression, HCV Con1 (GT 1b). The experiment in a line: Indirect immunofluorescence for NS5A in Huh5-2 replicon cells. To be noted: 10-fold serial dilutions, confocal microscopy. Format: cell-based, Hepatitis C virus. On the procedure: The potency of compound 10a measured by the luciferase assay in HCV GT 1b was confirmed at the level of viral RNA and NS5A protein expression. Huh5-2 replicon cells were treated with 10a in serial dilutions, or its solvent DMSO (control), and viral RNA was quantified by reverse transcription-quantitative polymerase chain reaction (RT-qPCR). NS5A protein levels were evaluated by indirect immunofluorescence combined with confocal microscopy analysis. […] Nuclei were stained with propidium iodide (PI) as a cell viability control.
An indirect immunofluorescence analysis of Con1 NS5A was performed as described previously. Propidium iodide (Sigma-Aldrich, St. Louis, MO, USA) was used to stain the DNA. Images were obtained with a Leica TCS-SP8 Confocal Microscope (Wetzlar, Germany).
Figure 6 Inhibition of HCV RNA and protein expression levels exerted by compound 10a in HCV Con1 (GT 1b) subgenomic replicon cell line. (A) RT-qPCR analysis of (+) strand HCV RNA levels in Huh5-2 replicon cells treated with 10-fold serial dilutions of compound 10a or the solvent DMSO. Values are expressed as a percentage of those obtained from cells treated with the solvent (control). The housekeeping gene YWHAZ (tyrosine 3-monooxygenase/tryptophan 5-monooxygenase activation protein zeta) was used as a normalization control. […]

Read-outs that look alike come from different tables or passages of the source. Bounds are passed on as bounds.

As usually defined, the EC50 is the concentration giving half of the maximal effect. For orientation: CC50 means the concentration at which the toxic effect on the cells reaches its halfway point. By melting point is commonly meant the temperature of the solid-liquid transition. `COC(=O)N[C@@H](C(=O)N1CCC[C@H]1c1ncc(-c2cccc(C#CC#Cc3cccc(-c4cnc([C@@H]5CCCN5C(=O)[C@H](NC(=O)OC)c5ccccc5)[nH]4)c3)c2)[nH]1)c1ccccc1` [Compound 10a, Dimethyl ((1R,1′R)-((2S,2′S)-((buta-1,3-diyne-1,4-diylbis(3,1-phenylene))bis(1H-imidazole-5,2-diyl))bis(pyrrolidine-2,1-diyl))bis(2-oxo-1-phenylethane-2,1-diyl))dicarbamate] showed a melting point of 126 to 128 °C. Moreover, in series [1] (HCV 1a (H77) full length), the “Gt1a SI” value is on record as over 2792.52. Further, in series [1] (Hepatitis C virus, Huh-7, 72 h, read-out: Gt1a EC50), the EC50 stood at 35.8 nM. For the same compound, in series [2], the “Gt2a SI” value was over 3567.61. The compound further returned an EC50 in series [2] (Hepatitis C virus, GT2A) of 28 nM. The EC50 in series [2] (listed as Comp. 10a, read-out: Gt2a EC50) was found to be 28 nM. Moreover, the EC50 in series [3] stood at 128 nM. In addition, the “Gt4a SI” value in series [4] (ED43 replicon) is recorded as over 1537.52. Besides, the half-maximal effective concentration (EC50) in series [4] (Hepatitis C virus, GT4A, read-out: Gt4a EC50) is 65 nM. Besides, in series [5], the CC50 at 72 h was over 100000 nM. In series [6], the NS5A protein expression entry was “reduction of NS5A expression”.
